The assay deals with T1, Nitric oxide synthase from induced murine macrophage cell line J774A-1 (Mus musculus, UniProt P29477).
T1 construct: The reaction is started by adding 50 μl of cell lysate (prepared as above); endogenous in cells; host or cells: J774A-1 murine macrophage cell line, induced with LPS and IFN-gamma; crude cell lysate
In words: Screen 1: nitric oxide synthase inhibition, conversion of 3H-L-arginine into 3H-L-citrulline, lysate of induced J774A-1 cells. As to conditions: J774A-1 cell lysate (LPS/IFNg induced), 1 hour at room temperature; read-out: IC50 (concentration of drug substance which gives 50% enzyme inhibition in the assay). It is filed as biochemical. Here is the method: The activity of compounds of formula (I), or a pharmaceutically acceptable salt, enantiomer or racemate thereof, may be screened for nitric oxide synthase inhibiting activity by a procedure based on that of Förstermann et al., Eur. J. Pharm., 1992, 225, 161-165. Nitric oxide synthase converts ^3H-L-arginine into ^3H-L-citrulline which can be separated by cation exchange chromatography and quantified by liquid scintillation counting.
Enzyme is prepared, after induction, from the cultured murine macrophage cell line J774A-1 (obtained from the laboratories of the Imperial Cancer Research Fund). J774A-1 cells are cultured in Dulbeccos Modified Eagles Medium (DMEM) supplemented with 10% foetal bovine serum, 4 mM L-glutamine and antibiotics (100 units/ml penicillin G, […] streptomycin & […] amphotericin B). Cells are routinely grown in […] flasks containing 35 ml medium kept at 37° C. and in a humidified atmosphere containing 5% CO2. […]
Labelled L-citrulline is separated from labelled L-arginine using Dowex AG-SOW. […] After allowing the samples to dry the L-citrulline is quantified by scintillation counting.
In a typical experiment basal activity is 300 dpm per 75 μl sample which is increased to 1900 dpm in the reagent controls. […] Compounds are tested at a range of concentrations and from the inhibitions obtained IC50 values are calculated. […]

Take `N=C(N)NN` [aminoguanidie]: the IC50 was 10 µM.

The values are drawn from patent US20040242871A1, “Novel arylheteroalkylamine derivatives” (priority 2001, published 2004).
